The values below come from US6197826A, “α-(2-hydroxyphenyl) nitrone compounds, pharmaceutical compositions containing the same and methods for treating inflammation” (Centaur Pharmaceuticals, Inc., priority 1999, dated 2001).

One assay concerns cyclooxygenase 1 (COX-1). As to conditions: 300 μM; COX-1 from ram seminal vesicles. On the procedure: (§1) In this experiment, nitrones of formula I were tested to determine if they inhibit the enzymes cyclooxygenase 1 (COX-1) and cyclooxygenase 2 (COX-2). The inhibition of COX-1 was measured by incubating arachidonic acid with COX-1 dervied from ram seminal vesicles. The inhibition of COX-2 was measured by incubation of arachidonic acid with COX-2 derived from sheep placenta. These assays are further described in Evans et al., Biochem. Pharmacol., 36:2035, 1987. In each assay, the formation of prostaglandin E2 (PGE2) was measured by spectrophotometric quantitation of malondialdehyde. The compounds to be tested were added to incubation solutions at a concentration of 300 μM.

A further assay relates to cyclooxygenase 2 (COX-2). To be noted: 300 μM; COX-2 from sheep placenta. On the procedure:
as §1

Structures are written as SMILES.

Regarding `COc1ccc2c(c1)c(CC(=O)O)c(C)n2C(=O)c1ccc(Cl)cc1` [indomethacin], the “inhibition of COX-1” value in the assay on cyclooxygenase 1 (COX-1) is listed as “completely inhibits”. Also, the “inhibition of COX-2” value with cyclooxygenase 2 (COX-2) is “completely inhibits”.
